How the values were obtained:
Assay type in all cases: in vivo
G6PC−/− mice = assay: G6pc−/− mouse model of GSD Ia, 4 days of treatment (Example 13)
Method: The objective of this study was to determine the ability of Compound 2, a small molecule prodrug of a potent thyroid hormone beta receptor (TBR) agonist, to reduce hepatic steatosis and other metabolic derangements in the glucose-6-phosphatase catalytic subunit knockout (G6pc−/−) mouse model of glycogen storage disease type Ia (GSD Ia).
Mice were treated with Compound 2 or with vehicle, using 4 groups of 6-7 mice: G6pc−/−mice receiving Compound 2, G6pc−/−mice receiving vehicle, Wt mice receiving Compound 2, and WT mice receiving vehicle. Daily injection of 0.1 to 0.2 mL 10% dextrose subcutaneously was initiated at 3 days of age for all mice, and all mice continued to receive daily dextrose injections throughout drug or vehicle treatment. Dextrose was not administered on the day of tissue collection. Mice were treated daily with Compound 2 or with vehicle, respectively, from 5 to 8 days of age. Mice were sacrificed on Day 9, and blood and tissues were collected. The fasting serum glucose and triglycerides, hepatic lipid and glycogen content, and GSD-related cell signaling pathways were examined.

male ob/ob mice = assay: 9-week efficacy and safety study in male ob/ob mice; conditions: for total plasma cholesterol levels lower: after 9 weeks; for liver triglyceride levels lower: at 9 weeks
Method: The objective of this study was to evaluate the efficacy and safety of Compound 2 treatment at doses of 3, 10, and 30 mg/kg/day for 9 weeks in male ob/ob mice. 3,3′,5-Triiodo-L-thyronine (T3) was used as a comparator in this study.
Methods: Seventy-eight adult male ob/ob mice were assigned to six different treatment groups (n=6-24/group). Animals were dosed daily with either vehicle [1% carboxymethylcellulose (CMC) in water, PO], T3 [(100 nmole/kg/day in aqueous solution, subcutaneous (SC)], or Compound 2 [3, 10 or 30 mg/kg/day in 1% CMC, PO]. Blood glucose and plasma cholesterol were measured weekly in all animals. Subsets of animals in the vehicle-treated and 30 mg/kg/day Compound 2-treated groups were sacrificed after 3, 6 and 9 weeks of treatment to analyze the temporal effects of Compound 2 on liver weight and liver triglyceride levels. Liver triglyceride levels, liver glycogen content, heart, liver and epididymal fat pad weights, and plasma clinical chemistry parameters were measured at sacrifice.

normal (wild type) mice = assay: Wild type mice treated alongside the G6PC−/− model (Example 12); conditions: wild type (wt) mice
Method: Compound 2 was tested in a G6PC−/−mouse model of GSD Ia. Daily injection of 0.1 to 0.2 mL 10% dextrose subcutaneously was initiated within 3 days of age for G6PC−/−mice. All G6PC−/−mice continued to receive daily dextrose injections during this time. Blood was collected at time of euthanasia, when tissues were collected. Two groups of 4 G6PC−/−mice (1 group treated with Compound 2, 1 group treated with vehicle) were analyzed to identify statistically significant differences between Compound 2-treated and vehicle-treated controls. We also treated 2 groups of 3 normal (wild type) mice, one with Compound 2 and one with vehicle.
Initially the GSD Ia mice were treated with Compound 2 from 5 to 10 days of age. Body mass, liver mass, liver glycogen concentration, liver triglycerides, fasting serum glucose, fasting serum triglycerides, and GSD-related cell signaling pathways were examined. Similarly, groups of GSD Ia mice were treated with vehicle for 5 days to serve as mock-treated controls for all assays. Groups of 3-4 mice were evaluated. GSD Ia mice were treated for >7 days to assess survival and longer-term effects of Compound 2 as described above (GSD Ia mice rarely survive >12 days of life without a therapeutic intervention). Metabolomic analysis of hepatic extracts were performed as described (Sinha, Farah et al. (2013), Hepatology 59(4):1366-80). Acylcarnitine and amino acid profiling were employed to detect any changes related to increased lipolysis and fatty acid beta-oxidation as described by Sinha et al. (Sinha, Farah et al. (2013), Hepatology 59(4):1366-80). […] Mean liver triglyceride content was reduced by more than 60% in Compound 2-treated animals relative to vehicle-treated control animals, while average liver weight was reduced by more than 30% vs. controls. Importantly, average liver weight as a percent of total body weight also declined by approximately 20% in treated vs. control animals. Further, treatment with Compound 2 led to statistically significant reductions in key metabolic markers of GSD Ia.

Cc1cc(OCP2(=O)OCCC(c3cccc(Cl)c3)O2)cc(C)c1Cc1ccc(O)c(C(C)C)c1 (stereo not drawn) [Compound 2]
difference in kidney mass as a percentage of total body mass, Compound 2 vs vehicle (G6PC−/− mice; G6pc−/− mice (FIG. 23B)): not significant
mean total liver triglycerides reduced (G6PC−/− mice; G6pc−/− mice, 4 days of drug treatment, vs vehicle-treated controls, p<0.0001): 69.0%
mean serum triglyceride concentration (G6PC−/− mice; G6pc−/− mice, drug treatment (vehicle 729.59 mg/dL)): 336.58 mg/dL
decrease in mean serum triglyceride concentration (G6PC−/− mice; G6pc−/− mice, drug treatment vs vehicle): 54.0%
mean total liver triglycerides (G6PC−/− mice; G6pc−/− mice, following 4 days of drug treatment (vehicle 13.550 mg)): 4.210 mg
blood glucose measurements (G6PC−/− mice; G6pc−/− mice, lower detection limit of the glucometer (FIG. 27)): < 20 mg/dL
mean liver weights (G6PC−/− mice; G6pc−/− mice, treated (control 393.55 mg)): 253.11 mg
mean liver weights reduced (G6PC−/− mice; G6pc−/− mice, treated vs control, p<0.05): over 30%
body mass (G6PC−/− mice; daily treatment from 5 to 8 days of age (FIG. 22)): not affected
kidney mass (G6PC−/− mice; daily treatment from 5 to 8 days of age (FIG. 23)): not affected
liver glycogen concentration (G6PC−/− mice; under the dosing parameters chosen (FIG. 26)): no significant changes
serum glucose concentration (G6PC−/− mice; under the dosing parameters chosen (FIG. 27)): no significant changes
serum triglyceride concentration (G6PC−/− mice; under the dosing parameters chosen (FIG. 28)): no significant changes
total plasma cholesterol levels lower (male ob/ob mice; 3 mg/kg/day PO, vs vehicle): ~43%
liver glycogen content (male ob/ob mice; 10 mg/kg/day PO, 9 weeks, vs vehicle (FIG. 5)): significantly (p<0.05) higher
total plasma cholesterol levels lower (male ob/ob mice; 10 mg/kg/day PO, vs vehicle): ~42%
liver triglyceride levels lower (male ob/ob mice; 10 mg/kg/day PO, vs vehicle): ~39%
total plasma cholesterol levels lower (male ob/ob mice; 30 mg/kg/day PO, vs vehicle): ~47%
liver triglyceride levels lower (male ob/ob mice; 30 mg/kg/day PO, vs vehicle): ~46%
liver triglyceride levels (male ob/ob mice; 30 mg/kg/day PO, from Week 3 onwards, vs vehicle): lower
terminal liver glycogen levels (male ob/ob mice; Compound 2-treated groups (3, 10, 30 mg/kg/day PO), 9 weeks, vs vehicle): modestly higher or similar
alanine aminotransferase (ALT) levels (male ob/ob mice; all dose groups (3, 10, 30 mg/kg/day PO)): Decreased
terminal liver weights (male ob/ob mice; all dose groups (3, 10, 30 mg/kg/day PO), 9 weeks, vs vehicle): lower
body mass (normal (wild type) mice; vs vehicle-treated controls (FIG. 15)): reduced
liver mass (normal (wild type) mice; vs vehicle-treated controls (FIG. 16)): reduced
liver mass as a percentage of body mass (normal (wild type) mice; vs vehicle-treated controls (FIG. 17)): reduced
liver glycogen levels (normal (wild type) mice; vs vehicle-treated controls (FIG. 18)): significantly reduced
serum triglycerides (normal (wild type) mice; vs vehicle-treated controls (FIG. 19)): somewhat enhanced
liver triglyceride concentrations (normal (wild type) mice; vs vehicle-treated controls (FIG. 20)): reduced
total liver triglycerides (normal (wild type) mice; vs vehicle-treated controls (FIG. 21)): reduced
